Test results from ChEMBL document CHEMBL1201862, “PubChem BioAssay data set” (2004).
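1) Cells in 96-well plates. 2) Compound, 48 h, 5 concentrations. 3) Linear interpolation between surrounding doses. 4) Unreached endpoint = highest concentration. GI50 marks 50% less growth.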 Active and inactive are the calls of the source. No stated cut-off is given here; in the data, active = GI50 up to about 1.1 µM and inactive = higher.

What was measured:
Assay in all cases: inhibition of tumour cell growth, NCI panel, 48 h
EKVX = system: EKVX
HCC 2998 = system: HCC 2998
OVCAR-4 = system: OVCAR-4
SNB-75 = system: SNB-75
T47D = system: T47D
A498 = system: A498
HT-29 = system: HT-29
UO-31 = system: UO-31
NCI-H23 = system: NCI-H23
OVCAR-3 = system: OVCAR-3
KM12 = system: KM12
PC-3 = system: PC-3
ACHN = system: ACHN
NCI-H522 = system: NCI-H522
SK-MEL-28 = system: SK-MEL-28
MCF7 = system: MCF7
SN12C = system: SN12C
HL-60 = system: HL-60
K562 = system: K562
CCRF-CEM = system: CCRF-CEM

Row | SMILES | GI50 (EKVX) | GI50 (HCC 2998) | GI50 (OVCAR-4) | GI50 (SNB-75) | GI50 (T47D) | GI50 (A498) | GI50 (HT-29) | GI50 (UO-31) | GI50 (NCI-H23) | GI50 (OVCAR-3) | GI50 (KM12) | GI50 (PC-3) | GI50 (ACHN) | GI50 (NCI-H522) | GI50 (SK-MEL-28) | GI50 (MCF7) | GI50 (SN12C) | GI50 (HL-60) | GI50 (K562) | GI50 (CCRF-CEM)
1 | Cc1c(/C=N\NC(=S)NCCNC(=S)N/N=C\c2c(C)n(C)n(-c3ccccc3)c2=O)c(=O)n(-c2ccccc2)n1C | > 100 µM (inactive) | > 100 µM (inactive) | > 100 µM (inactive) | 38 µM (inactive) | > 100 µM (inactive) | > 100 µM (inactive) | > 100 µM (inactive) | > 100 µM (inactive) | > 100 µM (inactive) | > 100 µM (inactive) | > 100 µM (inactive) | > 100 µM (inactive) | > 100 µM (inactive) |  |  |  |  |  |  | 
2 | O=c1oc2c(ccc3occc32)c(N2CCCCC2)c1-c1ccccc1 | > 70.8 µM (inactive) | > 100 µM (inactive) | > 93.3 µM (inactive) | > 80.7 µM (inactive) |  | > 100 µM (inactive) | 61.2 µM (inactive) | 12.7 µM (inactive) | > 100 µM (inactive) | > 100 µM (inactive) | > 66.5 µM (inactive) |  |  | > 86.3 µM (inactive) | > 100 µM (inactive) | > 93.5 µM (inactive) | > 100 µM (inactive) | 24.2 µM (inactive) |  | 
3 | COc1c(O)cc(O)c2c(=O)cc(-c3ccccc3)oc12 [WOGONIN] | 61.5 µM (inactive) | 35.2 µM (inactive) | 77.4 µM (inactive) | 56.1 µM (inactive) |  |  | 51.9 µM (inactive) | 2.58 µM (inactive) | 42.6 µM (inactive) | 24.5 µM (inactive) | 34 µM (inactive) | 51.1 µM (inactive) | 31.4 µM (inactive) | 40.6 µM (inactive) | > 100 µM (inactive) | 35.6 µM (inactive) | 90.6 µM (inactive) | 21.5 µM (inactive) | 25.1 µM (inactive) | 27 µM (inactive)
4 | CCN(CC)C(=S)SS(=O)(=O)c1ccc(NC(C)=O)cc1 | 44.5 µM (inactive) | 31.6 µM (inactive) | 20.4 µM (inactive) | 25.4 µM (inactive) | 24.9 µM (inactive) | > 55.6 µM (inactive) | 24.8 µM (inactive) | 19.5 µM (inactive) | 24 µM (inactive) | 31.7 µM (inactive) | 55.8 µM (inactive) | 27.1 µM (inactive) | 36.1 µM (inactive) | < 0.0213 µM (active) | 17.3 µM (inactive) |  | 18.2 µM (inactive) | 23.9 µM (inactive) | 33.9 µM (inactive) | 
5 | Cc1ccc(S(=O)(=O)NC(=O)Nc2ccc(C(=O)O)cc2)cc1 |  |  | > 100 µM (inactive) | > 100 µM (inactive) | > 100 µM (inactive) |  | > 100 µM (inactive) | > 100 µM (inactive) | > 100 µM (inactive) |  | > 100 µM (inactive) | > 100 µM (inactive) | > 100 µM (inactive) | > 100 µM (inactive) | > 100 µM (inactive) | > 100 µM (inactive) | > 100 µM (inactive) | > 100 µM (inactive) | > 100 µM (inactive) | > 100 µM (inactive)
6 | COC(=O)/C(=C\C(=O)c1ccc(Br)cc1)NN=C(c1ccccc1)c1ccccc1 | > 10 µM (inactive) | > 10 µM (inactive) | > 10 µM (inactive) | > 10 µM (inactive) | > 10 µM (inactive) |  | > 10 µM (inactive) |  | > 10 µM (inactive) |  | > 10 µM (inactive) | > 10 µM (inactive) |  |  | > 10 µM (inactive) | > 10 µM (inactive) | > 10 µM (inactive) | > 10 µM (inactive) | > 10 µM (inactive) | > 10 µM (inactive)
7 | CC(C)C(N)C(=O)NC(CCC(=O)NCCCCC(N)C(=O)NCCCNc1ccc([N+](=O)[O-])c2[nH]c3ccccc3c(=O)c12)C(N)=O (stereo unspecified) | > 100 µM (inactive) | 40.2 µM (inactive) | 20.6 µM (inactive) | 48.9 µM (inactive) | > 100 µM (inactive) | 59 µM (inactive) |  | 24.4 µM (inactive) | 88.7 µM (inactive) | > 100 µM (inactive) | > 100 µM (inactive) | 56.6 µM (inactive) | 40.6 µM (inactive) |  | > 100 µM (inactive) |  |  |  | > 100 µM (inactive) | 34.5 µM (inactive)
8 | Cc1cc(C#N)c(Nc2c(C)cccc2[N+](=O)[O-])s1 | 27.3 µM (inactive) | 87.7 µM (inactive) | 57.4 µM (inactive) | 21.5 µM (inactive) | 12.4 µM (inactive) | 66.7 µM (inactive) |  | > 100 µM (inactive) | 39.7 µM (inactive) | 29.5 µM (inactive) | > 100 µM (inactive) | 17.3 µM (inactive) | 49.7 µM (inactive) | 30.4 µM (inactive) | 76.9 µM (inactive) |  | > 100 µM (inactive) |  | > 100 µM (inactive) | 16.6 µM (inactive)
9 | O=C(N[C@@H](c1ccccc1)[C@@H](O)C(=O)OCc1ccc2c(c1)OCO2)c1ccccc1 | > 100 µM (inactive) | > 100 µM (inactive) | > 100 µM (inactive) | > 90.4 µM (inactive) |  | > 100 µM (inactive) | > 100 µM (inactive) | > 91.6 µM (inactive) | > 100 µM (inactive) | > 100 µM (inactive) | > 100 µM (inactive) |  |  | > 100 µM (inactive) | > 100 µM (inactive) | > 100 µM (inactive) | > 100 µM (inactive) | > 100 µM (inactive) | > 100 µM (inactive) | > 100 µM (inactive)
10 | COc1ccc2[nH]cc(CCNC(=O)[C@H](Cc3ccccc3)NC(=O)[C@@H](NCC(F)(F)F)C(C)C)c2c1 | 17.4 µM (inactive) |  | 16.3 µM (inactive) |  |  |  | 16.7 µM (inactive) | 22.9 µM (inactive) | 25.3 µM (inactive) | 15.6 µM (inactive) | 18.5 µM (inactive) | 18.2 µM (inactive) | 28.2 µM (inactive) | 16.7 µM (inactive) | 17.2 µM (inactive) | 17.9 µM (inactive) | 24.5 µM (inactive) | 20.1 µM (inactive) | 29.7 µM (inactive) | 0.809 µM (active)
11 | O=C1NCC2(CCNCC2)N1 | > 100 µM (inactive) | > 100 µM (inactive) | > 100 µM (inactive) | > 100 µM (inactive) | > 100 µM (inactive) | > 100 µM (inactive) | > 100 µM (inactive) | > 100 µM (inactive) | > 100 µM (inactive) |  | > 100 µM (inactive) |  | > 100 µM (inactive) |  | > 100 µM (inactive) | > 100 µM (inactive) | > 100 µM (inactive) | > 100 µM (inactive) |  | > 100 µM (inactive)
12 | Cc1ccc(C(=O)Nc2ccc(S(=O)(=O)O)c3cc(S(=O)(=O)O)cc(S(=O)(=O)O)c23)cc1NC(=S)Nc1cc(C(=O)Nc2ccc(S(=O)(=O)O)c3cc(S(=O)(=O)O)cc(S(=O)(=O)O)c23)ccc1C |  | > 75 µM (inactive) | > 75 µM (inactive) | > 75 µM (inactive) |  | > 75 µM (inactive) | > 75 µM (inactive) | > 75 µM (inactive) | > 75 µM (inactive) | > 75 µM (inactive) |  | > 75 µM (inactive) | > 75 µM (inactive) | > 75 µM (inactive) | > 75 µM (inactive) | > 75 µM (inactive) | > 75 µM (inactive) | > 75 µM (inactive) | > 75 µM (inactive) | > 75 µM (inactive)
13 | CCOC(=O)/C=C/c1c[nH]c(=O)[nH]c1=O | > 75 µM (inactive) | > 75 µM (inactive) | > 75 µM (inactive) | > 72.6 µM (inactive) |  | > 75 µM (inactive) | > 75 µM (inactive) | > 75 µM (inactive) | > 75 µM (inactive) | > 75 µM (inactive) | > 75 µM (inactive) |  |  | > 75 µM (inactive) | > 75 µM (inactive) | > 75 µM (inactive) | > 75 µM (inactive) | > 75 µM (inactive) | > 75 µM (inactive) | > 75 µM (inactive)
14 | CC1=C[P+](c2ccccc2)(c2ccccc2)c2ccccc2O1 | 16.7 µM (inactive) |  | 3.42 µM (inactive) | 11.4 µM (inactive) | 0.597 µM (active) |  | 2.91 µM (inactive) | > 100 µM (inactive) | 4.07 µM (inactive) | 1.14 µM (inactive) | 2.07 µM (inactive) | 3.32 µM (inactive) | 30.6 µM (inactive) | 3.25 µM (inactive) | 7.01 µM (inactive) | 5.05 µM (inactive) | 1.32 µM (inactive) | 2.06 µM (inactive) | 0.524 µM (active) | 
15 | COC(=O)/C(=N/O)C(C(=O)OC)C(=O)C(=O)Nc1c(Cl)cc(C)cc1S(=O)(=O)O (stereo unspecified) | > 100 µM (inactive) | > 100 µM (inactive) | > 100 µM (inactive) | > 100 µM (inactive) |  | > 100 µM (inactive) | > 100 µM (inactive) | > 100 µM (inactive) | > 100 µM (inactive) | > 100 µM (inactive) | > 100 µM (inactive) |  | > 100 µM (inactive) | 33.5 µM (inactive) | > 100 µM (inactive) |  | > 100 µM (inactive) | > 100 µM (inactive) | 67 µM (inactive) | 42.8 µM (inactive)
16 | CC1C(=O)CC(c2cccs2)N(N=O)C1c1cccs1 (stereo unspecified) | 57.1 µM (inactive) | 30.4 µM (inactive) | 50.2 µM (inactive) | 33.1 µM (inactive) |  | 13.7 µM (inactive) | 23.5 µM (inactive) | 43.6 µM (inactive) | 40.6 µM (inactive) | 47 µM (inactive) | 54.1 µM (inactive) |  |  | 28.2 µM (inactive) | 53.2 µM (inactive) | 19.3 µM (inactive) | 69.8 µM (inactive) | 26.7 µM (inactive) | 15.8 µM (inactive) | 34 µM (inactive)
